In patent publication US20240052421A1, “METHOD OF IDENTIFYING AND TREATING MITOCHONDRIAL SUBTYPE TUMORS” (The Trustees of Columbia University in the City of New York, priority 2020, published 2024):

Legend:
Assay type in all cases: cell-based, human
MTC PDCs = assay: Viability of MTC patient-derived cells (PDCs) after compound treatment, CellTiterGlo; settings: 13 MTC PDCs, 72 h treatment, serial dilutions
Excerpt: (§1) FIGS. 9A-K show MTC PDCs are distinctly sensitive to mitochondrial inhibition. […] Data are mean±s.d. of n≥3 replicates for each PDC from one representative experiment. […] Middle: correlation analysis of MTC (blue) and GPM (red) activity in PDCs (n=25 MTC PDCs and n=21 GPM PDCs; Spearman's correlation, p=−0.51, P=0.0003). Bottom: enrichment of fCNV gain and loss of mitochondrial and glycolytic-related genes in MTC PDCs (n=25) and GPM PDCs (n=21). The number of genes amplified/deleted in each tumor is color coded (amplifications, red to white; deletions, blue to white). FIGS. 9F and G show viability curves of nine MTC PDCs and nine GPM PDCs each derived from an independent patient treated with either FX-11 (F) or DEAB (G). Data are mean±s.d. from n≥4 replicates for each PDC from one representative experiment. […] Representative MRs with differential activity (n=304 tumors, n=2,799 cells from dataset 1, n=9,652 cells from dataset 2 and n=4,916 cells from dataset 3; two-sided MWW test, FDR<0.01) in TCGA and at least two out of three single-cell datasets are shown (two-sided MWW-GST test, log it(NES)>0.58, FDR<0.01). Nodes represent MRs and target genes, while lines represent interactions. […] Data are mean±s.d. from one representative experiment including n=3 independent infections for each PDC; **P=0.0010 and 0.0013 for PDC-002 shRNA1 and shRNA2 versus vector, respectively; **P=0.0030 and 0.0023 for PDC-026 shRNA1 and shRNA2 versus vector, respectively; *P=0.0285 for PDC-078 shRNA1 versus vector; *P=0.0142 for PDC-021 shRNA1 versus vector. […] Data are mean±s.d. of one representative experiment assessed by n=30 replicates for each PDC; **P=0.0022. […] Data are mean±s.d. of n=3 independent experiments for each PDC, each performed in triplicate. Bars on the right-hand side of the graph indicate mean±s.e.m. of values observed in the two sets of PDCs; n=7 MTC PDCs and n=7 GPM PDCs, each derived from an independent patient; ***P=0.00006. Experiments in A-D, F, G, I and J were repeated two times with similar results. In all experiments, significance was evaluated by two-tailed t-test, unequal variance.
(§2) Therefore, we tested the sensitivity of 13 MTC and ten GPM PDCs to compounds that interfere with OXPHOS and mitochondrial metabolism. […] Conversely, GPM PDCs were resistant to all four compounds (FIG. 9A-D). […] Furthermore, the complementary fCN gains and losses of MTC and GPM gene sets robustly correlated with mitochondrial inhibitor sensitivity score (FIG. 9E). Treatment of GBM PDCs with inhibitors of glycolysis (DEAB and FX-11)^51 had no effect regardless of the metabolic class of PDC (FIGS. 9F,G).
(§3) Compound treatment of PDCs. […] Viability was determined using CellTiterGlo assay reagent (Promega, no. G7570) and the GloMax-Multi+Microplate Multimode Reader (Promega).

GPM PDCs = assay: Viability of GPM patient-derived cells (PDCs) after compound treatment, CellTiterGlo; settings: ten GPM PDCs, 72 h treatment, serial dilutions
Excerpt: as §1, §2, §3

GBM PDCs = assay: Viability of GBM PDCs (MTC and GPM) treated with inhibitors of glycolysis; settings: nine MTC and nine GPM PDCs, 72 h treatment
Excerpt: FIGS. 9A-K show MTC PDCs are distinctly sensitive to mitochondrial inhibition. […] Data are mean±s.d. of n≥3 replicates for each PDC from one representative experiment. […] Middle: correlation analysis of MTC (blue) and GPM (red) activity in PDCs (n=25 MTC PDCs and n=21 GPM PDCs; Spearman's correlation, p=−0.51, P=0.0003). Bottom: enrichment of fCNV gain and loss of mitochondrial and glycolytic-related genes in MTC PDCs (n=25) and GPM PDCs (n=21). The number of genes amplified/deleted in each tumor is color coded (amplifications, red to white; deletions, blue to white). FIGS. 9F and G show viability curves of nine MTC PDCs and nine GPM PDCs each derived from an independent patient treated with either FX-11 (F) or DEAB (G). Data are mean±s.d. from n≥4 replicates for each PDC from one representative experiment. […] Data are mean±s.d. of one representative experiment assessed by n=30 replicates for each PDC; **P=0.0022. […] In all experiments, significance was evaluated by two-tailed t-test, unequal variance. […]
as §3

mitochondrial PDOs = assay: Viability of mitochondrial GBM patient-derived organoids (PDOs), serial dilution of mitochondrial inhibitors
Procedure: (§4) The objective of the study is to test the activity of IM-156, a novel mitochondrial inhibitor currently in clinical testing, in vitro in 25 GBM-PDO organoids previously classified molecularly as mitochondrial (MTC, 13 organoids) or glycolytic/plurimetabolic (GPM, 12 organoids) plus 2 GBM-PDO harboring a FGFR3-TACC3 (F3T3) fusion.
(§5) Using IM-156 (0 μM -15 μM, 1/3 dilution, 7 points and 0-45 μM, 1/3 dilution, 10 points), […], and 2 FGFR3-TACC3 positive GBM PDOs were tested. Seventy-two hours later viability was assessed and the half-maximal inhibitory concentration was calculated. The activity (IC50) of IM-156 was compared with IACS-010759, Metformin, Tigecycline, and Menadione, 4 inhibitors of mitochondrial activity/respiration. […] FGFR3-TACC3 fusion expressing cells had been previously characterized as mitochondrial GBM.

[1] = system: glycolytic/plurimetabolic PDOs; assay: Viability of glycolytic/plurimetabolic GBM PDOs, serial dilution of mitochondrial inhibitors
Procedure: as §4, §5

FGFR3-TACC3 PDOs = assay: Viability of FGFR3-TACC3 positive GBM PDOs, serial dilution of mitochondrial inhibitors
Procedure: as §4, §5

[2] = 15 μM as highest concentration, 72 h

CC1=CC(=O)c2ccccc2C1=O [menadione]
effect on viability of MTC PDCs (MTC PDCs): reduced the viability | effect on viability of GPM PDCs (GPM PDCs): resistant

CCCc1c(O)c(O)c(C(=O)O)c2cc(Cc3ccccc3)c(C)cc12 [FX-11]
effect on viability of GBM PDCs regardless of metabolic class (GBM PDCs): no effect

NC(=Nc1ccc(OC(F)(F)F)cc1)N=C(N)N1CCCC1 [IM-156]
number of mitochondrial PDOs in which the drug was effective (mitochondrial PDOs; [2]): 12 out of 14 | effectiveness in MTC models as opposed to GPM subtype (mitochondrial PDOs; MTC versus GPM patient-derived tumor models): significantly more effective | IC50 (mitochondrial PDOs; mitochondrial PDOs, 15 μM as highest concentration, viability at 72 h, read-out: Median IC50): 6.38 µM | number of glycolytic/plurimetabolic PDOs in which the drug was effective [1, 2]: 2 out of 10 | change in sensitivity of glycolytic/plurimetabolic GBM PDOs on increasing maximum concentration ([1]; maximum concentration raised from 15 μM to 45 μM): significant increase in sensitivity | number of FGFR3-TACC3 PDOs in which the drug was effective (FGFR3-TACC3 PDOs; [2]): 2 out of 2 | sensitivity of FGFR3-TACC3 fusion expressing cells (FGFR3-TACC3 PDOs; 2 FGFR3-TACC3 positive GBM PDOs): distinct sensitivity

Cc1nc(-c2nc(-c3ccc(OC(F)(F)F)cc3)no2)nn1Cc1cccc(N2CCC(S(C)(=O)=O)CC2)c1 [IACS-010759]
effect on viability of MTC PDCs (MTC PDCs): reduced the viability | effect on viability of GPM PDCs (GPM PDCs): resistant

CN(C)C(=N)N=C(N)N [metformin]
effect on viability of MTC PDCs (MTC PDCs): reduced the viability | effect on viability of GPM PDCs (GPM PDCs): resistant

CN(C)c1cc(NC(=O)CNC(C)(C)C)c(O)c2c1C[C@H]1C[C@H]3[C@H](N(C)C)C(O)=C(C(N)=O)C(=O)[C@@]3(O)C(O)=C1C2=O [tigecycline]
effect on viability of MTC PDCs (MTC PDCs): reduced the viability | effect on viability of GPM PDCs (GPM PDCs): resistant

CCN(CC)c1ccc(C=O)cc1 [DEAB]
effect on viability of GBM PDCs regardless of metabolic class (GBM PDCs): no effect
